We go through 2 molecules from patent US20110223597A1 (priority 2010, published 2011).

Data set [1] relates to UGT1A4 (overall OLZ glucuronidation). The data set can be described thus: in vitro. The settings on record: human, pH 7.5.
Data set [2] deals with T1, UGT1A4 (Homo sapiens, UniProt P22310).
T1 sequence (P22310 29-534): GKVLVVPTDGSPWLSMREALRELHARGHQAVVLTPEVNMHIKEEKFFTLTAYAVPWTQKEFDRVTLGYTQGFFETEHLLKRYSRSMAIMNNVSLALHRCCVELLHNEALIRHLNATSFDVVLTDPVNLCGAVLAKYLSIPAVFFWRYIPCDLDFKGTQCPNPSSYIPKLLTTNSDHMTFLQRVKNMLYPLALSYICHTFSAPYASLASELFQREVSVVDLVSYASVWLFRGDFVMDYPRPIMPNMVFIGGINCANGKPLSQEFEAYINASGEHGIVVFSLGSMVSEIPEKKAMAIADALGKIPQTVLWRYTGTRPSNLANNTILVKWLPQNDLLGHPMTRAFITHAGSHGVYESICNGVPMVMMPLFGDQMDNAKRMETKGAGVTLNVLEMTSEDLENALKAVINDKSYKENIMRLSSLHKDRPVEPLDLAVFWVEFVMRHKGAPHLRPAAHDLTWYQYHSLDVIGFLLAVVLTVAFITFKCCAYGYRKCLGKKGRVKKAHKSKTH
As to the kind of experiment: in vitro. Particulars: homogenates from UGT1A4-over-expressing cells, pH 7.5, probe OLZ (olanzapine), 25 μM.
Method: Glucuronidation assays were performed in 50 mmol/L Tris buffer (pH 7.5), 10 mmol/L MgCl2, 4 mmol/L UDP-glucuronic acid (UDPGA), and 7.8 μmol/L to 4 mmol/L of substrate at 37° C. in a water bath for 2 h. […] Reactions were terminated by the addition of the same volume of cold acetonitrile as the initial reaction volume. Reactions were centrifuged at 13,000 g for 10 min at 4° C. and supernatants were collected. […] Elution consisted of a gradient elution starting with 87.5% buffer B (100% acetonitrile) and 17.5% buffer A [5 mmol/L ammonium acetate (pH 6.0)] for 5 min, a linear gradient to 90% buffer B over 1 min and held for 2 min, then a linear gradient back to initial conditions and held for 2 min for a total run time of 10 min. The flow rate was maintained at 0.5 mL/min. […] 1, 1997; 25(0:81-93, and by mass spectrometry as described herein. As controls, glucuronidation assays were performed using HLM as a positive control for glucuronidation activity and untransfected HEK293 cell homogenate protein as a negative control for glucuronidation activity. Four independent experiments were performed for kinetic analysis of UGT-over-expressing cell homogenates, with all assays within each experiment performed in duplicate; two independent experiments were performed for rate determination assays and three for kinetic analysis for HLM specimens.

The test system of data set [3] is UGTs 1A1, 1A3, 1A6, 1A7, 1A8, 1A9, 1A10, 2B4, 2B7, 2B11, 2B15 or 2B17. As to the kind of experiment: Screening of OLZ glucuronidation activity by homogenates of HEK293 cells over-expressing other wild-type UGTs. Format: in vitro ADME, human. The settings on record: up to 250 μg of UGT-over-expressing cell homogenate.

Regarding `Nc1nnc(-c2cccc(Cl)c2Cl)c(N)n1` [LTG, lamotrigine], the results for the inhibition at 2 h, 2000 μM in data set [1] and in data set [2] were 12 ± 3.4% and 41%, respectively. With `Cc1cc2c(s1)Nc1ccccc1N=C2N1CCN(C)CC1` [OLZ, Olanzapine], in data set [3], the “glucuronidation activity against OLZ in UGT screening” value is on record as “None of the other UGTs screened”.
